Experimental data taken from US20110059114A1, “Compositions and Methods for the Treatment of Radioresistant Glioma Stem Cells” (DUKE UNIVERSITY, priority 2009, published 2011).

Legend:
[1] = tested on: CD133+ cells enriched from medulloblastoma cell lines; conditions: cited from earlier work
Notch signaling = experiment: Notch-responsive luciferase reporter (RBP-Jκ reporter) assay; type: cell-based, human; conditions: T4302 CD133+ cells; 2 μM DAPT or 0.5 μM L685,458 over night
Excerpt: (§1) FIG. 1 is a series of graphs illustrating that γ-secretase inhibitors reduce cell growth and clonogenic survival of glioma stem cells following radiation. (A) T4302 CD133+ glioma stem cells were transfected with a Notch-responsive luciferase reporter (RBP-JK reporter) pre-mixed with the vector directing constitutive expression of Renilla luciferase. Cells were left unirradiated or irradiated at 3 Gy, and were then collected to measure luciferase activities at time points as indicated. […] The relative mRNA levels of Hes2 were determined by quantitative real-time PCR at the time points as indicated. […] Total viable cell numbers were then determined by the CellTiter-Glo Luminescent Cell Viability Assay (Promega) for the following five days. […] Cells were then plated to form neurospheres, and the surviving fractions were determined as described in methods. […] (F,G) Neurosphere formation of T3359 and T4105 CD 133+ cells treated with GSIs alone, 3-Gy radiation alone, or the combination was determined as described in FIG. 1E. *: p<0.05 by Student's t-test; #: p<0.001 by one-way ANOVA.
Luciferase assay. […] The luciferase activities were determined by the Dual-luciferase assay system (Promega).

T4302 CD133+ cells [2] = experiment: Annexin V staining, flow cytometry; type: cell-based, human
Protocol: (§2) FIG. 2 is a series of graphs illustrating that γ-secretase inhibitors enhance radiation-induced cell death in glioma stem cells. (A) T4302 CD 133+ cells were pre-treated with DAPT or L685,458 for 4 hours and irradiated at 3 Gy. Percentage of dead cells was determined by trypan blue exclusion assay at 48 hours after radiation exposure. (B) T4302 CD 133+ cells were treated with GSIs ±radiation as indicated. Cells were then plated at 3000 cells per well in 96-well plates. Relative caspase 3/7 activities were determined by normalizing caspase activities to the corresponding cell titers. (C) T4302 CD 133+ cells were treated as described in FIG. 2A. 24 or 48 hours after radiation exposure, cells were labeled with FITC-conjugated Annexin V staining kit (BD Sciences) according to manufacturer's instructions and analyzed by flow cytometry. (D) T4302 CD 133+ cells were pre-treated with 2 μM DAPT for 4 hours, and were left unirradiated or irradiated at 1, 2 or 3 Gy. Relative caspase 3/7 activities were determined at 72 hours after radiation. (E) T4302 CD133+ cells were pre-treated with DAPT at indicated concentrations for 4 hours and irradiated at 3 Gy. Relative caspase activities were determined at 48 or 72 hours after radiation. *: p<0.01 by Student's t-test; #: p<0.01 by one-way ANOVA.

Chk1 and Chk2 = experiment: Immunoblotting of activating phosphorylation of Chk1 and Chk2; type: cell-based, human; conditions: following radiation, pretreated 24 hours
Protocol: (A) T4302 CD133+ cells were pretreated with DPAT or L685,458 for 24 hours prior radiation. One hour after radiation exposure, cells were harvested. The levels of activating phosphorylation of Chk1 and Chk2 were assessed by immunoblotting. (B) T4302 CD133+ cells were treated with 2 μM DAPT at 4, 24 hours prior to radiation (−24 hrs, or -4 hrs), or at 0, 4, 24 hours after radiation. Relative caspase 3/7 activities were measured 3 days after radiation exposure. *: p<0.001 by Student's t-test.
Antibodies, DNA constructs, lentiviruses and other reagents. The antibodies purchased from Cell Signaling Technology (Danvers, M A) include phosphor-S296-Chk1 (2349), total Chk1 (2345), phosphor-T68-Chk2 (2661), total Chk2 (2662), phospho-5473 Akt (#9271), total Akt (#9272), PTEN (#9556), phospho-S15-p53 (#9286), Bcl-2 (#2870), Bcl-xL (#2764), Mcl-1 (#4572), Puma (#4976). Other antibodies used in this study are p53 antibody (#sc-126, Santa Cruz Biotechnology, Santa Cruz, Calif.), and actin antibody (Millipore, Billerica, Mass.). The pcDNA3-Notch1 construct was kindly provided by Dr. Spyros Artavanis-Tsakonas, Harvard University. The coding sequences of intracellular domain of Notch1 (amino acid residues 1744-2556) was amplified by PCR and subcloned into the lentiviral vector pCDH-CMV-EF1-puro (System Biosciences, Mountain View, Calif.) through the EcoRI and NotI sites. […]

T4302 CD133+ cells [3] = experiment: Trypan blue exclusion assay; type: cell-based, human; conditions: two days after 3-Gy radiation
Protocol: as §2

[4] = tested on: T4302 CD133+ glioma stem cells; experiment: Growth curve, CellTiter-Glo Luminescent Cell Viability Assay; type: cell-based, human; conditions: without radiation treatment, day five; 2 μM DAPT or 0.5 μM L685,458
Excerpt: as §1
Growth Curve, caspase 3/7 assay, and clonogenic survival assay. […] Cell number was measured for 5 days using the CellTiter-Glo assay kit (Promega, Madison, […].). […]

SMILES	apoptosis and differentiation in CD133+ cells [1]	apoptosis in nestin-expressing cells in comparison to nestin-negative cells [1] [fold]	tumorigenic capacity of CD133+ cells [1]	Notch signaling in glioma stem cells (Notch-responsive luciferase reporter) (Notch signaling)	Annexin V-positive labeled cells (T4302 CD133+ cells [2]; 24 hours following 3 Gy radiation)	Annexin V-positive labeled cells (T4302 CD133+ cells [2]; 48 hours following 3 Gy radiation)	activating phosphorylation of Chk1 or Chk2 (Chk1 and Chk2)	dead cells (T4302 CD133+ cells [3]) [%]	sham-treated cells more than GSI-treated cells (total cell number) [4] [%]
O=S(=O)(NC1[C@@H]2CC[C@H]1Cc1ccccc1C2)c1cccs1 (stereo partly drawn) [GSI-18]	induces apoptosis and differentiation	10	impairs the tumorigenic capacity	–	–	–	–	–	–
CC(C)C[C@H](NC(=O)[C@H](Cc1ccccc1)C[C@@H](O)[C@H](Cc1ccccc1)NC(=O)OC(C)(C)C)C(=O)N[C@@H](Cc1ccccc1)C(N)=O [L685,458]	–	–	–	blocked	not obvious	significantly increased	Neither of DAPT or L685,458 significantly altered	60	60
